Calls of active or inactive are those of the source. The rule behind the calls is not given here.
Tested on: rodent lifetime carcinogenesis bioassay, tumor incidence TD50
Experiment: chronic cancer bioassays in animals – CPDB, compiled studies (AID 1745844)
[1] = mouse, strain B6C3F1, females, by gavage, site: liver, lesion: hepatocellular adenoma + hepatocellular carcinoma + neoplastic nodule, dosed 103 weeks, study length 105 weeks
[2] = mouse, strain B6C3F1, females, by gavage, site: liver, lesion: hepatocellular adenoma + hepatocellular carcinoma, dosed 103 weeks, study length 105 weeks
[3] = mouse, strain B6C3F1, females, by gavage, site: liver, lesion: hepatocellular adenoma, dosed 103 weeks, study length 105 weeks
[4] = mouse, strain B6C3F1, females, by gavage, site: lung, lesion: alveolar/bronchiolar adenoma + alveolar/bronchiolar carcinoma, dosed 103 weeks, study length 105 weeks
[5] = mouse, strain B6C3F1, males, by gavage, site: any site (literature study), lesion: several types, types named in the paper, dosed 103 weeks, study length 104 weeks
[6] = mouse, strain B6C3F1, males, by gavage, site: liver, lesion: hepatocellular adenoma + hepatocellular carcinoma + neoplastic nodule, dosed 103 weeks, study length 104 weeks
[7] = rat, strain Fischer 344, females, by gavage, site: any site (literature study), lesion: several types, types named in the paper, dosed 103 weeks, study length 104 weeks
[8] = rat, strain Fischer 344, males, by gavage, site: any site (literature study), lesion: several types, types named in the paper, dosed 103 weeks, study length 104 weeks
[9] = rat, strain Fischer 344, males, by gavage, site: liver, lesion: hepatocellular adenoma + hepatocellular carcinoma + neoplastic nodule, dosed 103 weeks, study length 104 weeks

Structure (SMILES): Oc1ccc(O)cc1
- TD50 [1]: 122 mg/kg/day
- TD50 [2]: 122 mg/kg/day
- TD50 [3]: 65 mg/kg/day
- TD50 [4]: 19200 mg/kg/day
- TD50 (mouse, strain B6C3F1, females, in feed, site: liver, lesion: hepatocellular adenoma, dosed 96 weeks, study length 96 weeks): 17900 mg/kg/day
- TD50 [5]: 497 mg/kg/day (inactive)
- TD50 [6]: 383 mg/kg/day
- TD50 (mouse, strain B6C3F1, males, in feed, site: kidney, lesion: adenoma, dosed 96 weeks, study length 96 weeks): 5320 mg/kg/day
- TD50 (mouse, strain B6C3F1, males, in feed, site: liver, lesion: hepatocellular adenoma, dosed 96 weeks, study length 96 weeks): 1450 mg/kg/day
- TD50 (rat, strain F344/DuCrj, females, in feed, site: liver, lesion: hepatocellular carcinoma, dosed 104 weeks, study length 104 weeks): 8080 mg/kg/day
- TD50 (rat, strain F344/DuCrj, males, in feed, site: kidney, lesion: adenoma, dosed 104 weeks, study length 104 weeks): 349 mg/kg/day
- TD50 (rat, strain Fischer 344, females, by gavage, site: all sites, lesion: mononuclear-cell leukemia, dosed 103 weeks, study length 104 weeks): 55.8 mg/kg/day
- TD50 [7]: 51.6 mg/kg/day
- TD50 (rat, strain Fischer 344, males, by gavage, site: adrenal medulla, lesion: pheochromocytoma benign, bilateral + pheochromocytoma, benign, dosed 103 weeks, study length 104 weeks): 48.2 mg/kg/day
- TD50 (rat, strain Fischer 344, males, by gavage, site: adrenal medulla, lesion: pheochromocytoma benign, bilateral + pheochromocytoma, malignant + pheochromocytoma, benign, dosed 103 weeks, study length 104 weeks): 40.4 mg/kg/day
- TD50 [8]: 41.8 mg/kg/day
- TD50 (rat, strain Fischer 344, males, by gavage, site: kidney, lesion: tubule adenoma, dosed 103 weeks, study length 104 weeks): 64.7 mg/kg/day
- TD50 [9]: 5710 mg/kg/day

Structure (SMILES): CCCCCC(N)=O
- carcinogen call (mouse, strain C57BL/6, females, in feed, site: liver, lesion: hepatocellular carcinoma, dosed 52 weeks, study length 69 weeks): negative (inactive)
- TD50 (mouse, strain C57BL/6, females, in feed, site: lung, lesion: alveolar/bronchiolar adenoma, dosed 52 weeks, study length 69 weeks): 37200 mg/kg/day (inactive)
- TD50 (mouse, strain C57BL/6, females, in feed, site: stomach, lesion: squamous-cell papilloma, dosed 52 weeks, study length 69 weeks): 8900 mg/kg/day
- TD50 (mouse, strain C57BL/6, males, in feed, site: all sites, lesion: malignant lymphoma, histiocytic type, dosed 52 weeks, study length 69 weeks): 2140 mg/kg/day
- TD50 (mouse, strain C57BL/6, males, in feed, site: all sites, lesion: several types, types named in the paper, dosed 52 weeks, study length 69 weeks): 1950 mg/kg/day
- TD50 (mouse, strain C57BL/6, males, in feed, site: liver, lesion: hemangiosarcoma, dosed 52 weeks, study length 69 weeks): 25300 mg/kg/day (inactive)
- TD50 (mouse, strain C57BL/6, males, in feed, site: liver, lesion: malignant lymphoma, histiocytic type, dosed 52 weeks, study length 69 weeks): 25300 mg/kg/day
- TD50 (mouse, strain C57BL/6, males, in feed, site: lung, lesion: alveolar/bronchiolar adenoma, dosed 52 weeks, study length 69 weeks): 3490 mg/kg/day (inactive)
- TD50 (mouse, strain C57BL/6, males, in feed, site: multiple organs, lesion: malignant lymphoma, histiocytic type, dosed 52 weeks, study length 69 weeks): 2660 mg/kg/day
- carcinogen call (rat, strain Fischer 344, females, in feed, site: liver, lesion: one or several types, types not named, dosed 52 weeks, study length 69 weeks): negative (inactive)
- carcinogen call (rat, strain Fischer 344, males, in feed, site: liver, lesion: one or several types, types not named, dosed 52 weeks, study length 69 weeks): negative (inactive)

Structure (SMILES): ClCC(Cl)Cl
- TD50 (mouse, strain B6C3F1, females, by gavage, site: adrenal gland + liver, lesion: pheochromocytoma + hepatocellular carcinoma, dosed 78 weeks, study length 90 weeks): 47.6 mg/kg/day
- TD50 (mouse, strain B6C3F1, females, by gavage, site: adrenal gland, lesion: pheochromocytoma, dosed 78 weeks, study length 90 weeks): 248 mg/kg/day
- TD50 (mouse, strain B6C3F1, females, by gavage, site: any site (literature study), lesion: several types, types named in the paper, dosed 78 weeks, study length 90 weeks): 52.9 mg/kg/day
- TD50 (mouse, strain B6C3F1, females, by gavage, site: liver, lesion: hepatocellular adenoma + hepatocellular carcinoma + neoplastic nodule, dosed 78 weeks, study length 90 weeks): 47.6 mg/kg/day
- TD50 (mouse, strain B6C3F1, females, by gavage, site: liver, lesion: hepatocellular carcinoma, dosed 78 weeks, study length 90 weeks): 47.6 mg/kg/day
- TD50 (mouse, strain B6C3F1, females, by gavage, site: lung, lesion: alveolar/bronchiolar adenoma + alveolar/bronchiolar carcinoma, dosed 78 weeks, study length 90 weeks): 787 mg/kg/day
- TD50 (mouse, strain B6C3F1, males, by gavage, site: adrenal gland + liver, lesion: pheochromocytoma + hepatocellular carcinoma, dosed 78 weeks, study length 90 weeks): 65 mg/kg/day
- TD50 (mouse, strain B6C3F1, males, by gavage, site: adrenal gland, lesion: pheochromocytoma, dosed 78 weeks, study length 90 weeks): 588 mg/kg/day
- TD50 (mouse, strain B6C3F1, males, by gavage, site: any site (literature study), lesion: several types, types named in the paper, dosed 78 weeks, study length 90 weeks): 79.5 mg/kg/day
- TD50 (mouse, strain B6C3F1, males, by gavage, site: liver, lesion: hepatocellular adenoma + hepatocellular carcinoma + neoplastic nodule, dosed 78 weeks, study length 90 weeks): 65 mg/kg/day
- TD50 (mouse, strain B6C3F1, males, by gavage, site: liver, lesion: hepatocellular carcinoma, dosed 78 weeks, study length 90 weeks): 65 mg/kg/day
- TD50 (mouse, strain B6C3F1, males, by gavage, site: lung, lesion: alveolar/bronchiolar adenoma + alveolar/bronchiolar carcinoma, dosed 78 weeks, study length 90 weeks): 1560 mg/kg/day
- carcinogen call (rat, strain Osborne-Mendel, females, by gavage, site: any site (literature study), lesion: several types, types named in the paper, dosed 78 weeks, study length 112 weeks): negative (inactive)
- TD50 (rat, strain Osborne-Mendel, females, by gavage, site: liver, lesion: hepatocellular adenoma + hepatocellular carcinoma + neoplastic nodule, dosed 78 weeks, study length 112 weeks): 771 mg/kg/day
- carcinogen call (rat, strain Osborne-Mendel, males, by gavage, site: any site (literature study), lesion: several types, types named in the paper, dosed 78 weeks, study length 112 weeks): negative (inactive)

Structure (SMILES): CC(I)C1OCC(CO)O1 (configuration not stated)
- TD50 (mouse, strain B6C3F1, females, by gavage, site: Harderian gland + pituitary gland, anterior, lesion: adenoma, NOS + carcinoma, NOS, dosed 103 weeks, study length 105 weeks): 92.4 mg/kg/day
- TD50 (mouse, strain B6C3F1, females, by gavage, site: Harderian gland, lesion: adenoma, NOS + carcinoma, NOS, dosed 103 weeks, study length 105 weeks): 263 mg/kg/day
- TD50 (mouse, strain B6C3F1, females, by gavage, site: any site (literature study), lesion: several types, types named in the paper, dosed 103 weeks, study length 105 weeks): 172 mg/kg/day
- TD50 (mouse, strain B6C3F1, females, by gavage, site: forestomach, lesion: squamous-cell papilloma, dosed 103 weeks, study length 105 weeks): 608 mg/kg/day
- TD50 [1]: 373 mg/kg/day
- TD50 [2]: 373 mg/kg/day
- TD50 [3]: 471 mg/kg/day
- TD50 [4]: 2740 mg/kg/day
- TD50 (mouse, strain B6C3F1, females, by gavage, site: pituitary gland, anterior, lesion: adenoma, NOS, dosed 103 weeks, study length 105 weeks): 138 mg/kg/day
- carcinogen call [5]: negative (inactive)
- TD50 [6]: 1100 mg/kg/day
- TD50 (mouse, strain B6C3F1, males, by gavage, site: lung, lesion: alveolar/bronchiolar adenoma + alveolar/bronchiolar carcinoma, dosed 103 weeks, study length 104 weeks): 2410 mg/kg/day
- TD50 [7]: 214 mg/kg/day (inactive)
- TD50 (rat, strain Fischer 344, females, by gavage, site: liver, lesion: hepatocellular adenoma + hepatocellular carcinoma + neoplastic nodule, dosed 103 weeks, study length 104 weeks): 2490 mg/kg/day
- TD50 [8]: 52.1 mg/kg/day
- TD50 [9]: 571 mg/kg/day
- TD50 (rat, strain Fischer 344, males, by gavage, site: multiple organs + thyroid gland, lesion: mononuclear-cell leukemia + follicular-cell carcinoma, dosed 103 weeks, study length 104 weeks): 84.1 mg/kg/day
- TD50 (rat, strain Fischer 344, males, by gavage, site: multiple organs, lesion: mononuclear-cell leukemia, dosed 103 weeks, study length 104 weeks): 101 mg/kg/day
- TD50 (rat, strain Fischer 344, males, by gavage, site: nasal cavity, lesion: adenoma, NOS, dosed 103 weeks, study length 104 weeks): 1210 mg/kg/day
- TD50 (rat, strain Fischer 344, males, by gavage, site: testis, lesion: interstitial-cell tumor, dosed 103 weeks, study length 104 weeks): 40.6 mg/kg/day
- TD50 (rat, strain Fischer 344, males, by gavage, site: thyroid gland, lesion: follicular-cell carcinoma, dosed 103 weeks, study length 104 weeks): 280 mg/kg/day

Structure (SMILES): C=CCN(CC(C)O)N=O (configuration not stated)
- TD50 (rat, strain Fischer 344, females, in drinking water, site: esophagus, lesion: several types, types named in the paper, dosed 50 weeks, study length 65 weeks): 4.67 mg/kg/day
- TD50 (rat, strain Fischer 344, females, in drinking water, site: liver, lesion: hepatocellular carcinoma, dosed 50 weeks, study length 65 weeks): 1.38 mg/kg/day
- TD50 (rat, strain Fischer 344, females, in drinking water, site: nasal cavity, lesion: several types, types named in the paper, dosed 50 weeks, study length 65 weeks): 0.877 mg/kg/day

Structure (SMILES): O=C(C1CCCCC1)N1CC(=O)N2CCc3ccccc3C2C1 (configuration not stated)
- TD50 (hamster, strain Syrian Golden, females, by gavage, site: any site (literature study), lesion: several types, types named in the paper, dosed 80 weeks, study length 80 weeks): 250 mg/kg/day (inactive)
- carcinogen call (hamster, strain Syrian Golden, males, by gavage, site: any site (literature study), lesion: several types, types named in the paper, dosed 80 weeks, study length 80 weeks): negative (inactive)
- carcinogen call (rat, strain Sprague-Dawley, females, by gavage, site: any site (literature study), lesion: several types, types named in the paper, dosed 104 weeks, study length 130 weeks): negative (inactive)
- carcinogen call (rat, strain Sprague-Dawley, males, by gavage, site: any site (literature study), lesion: several types, types named in the paper, dosed 104 weeks, study length 130 weeks): negative (inactive)

Source: PubChem BioAssay AID1745844 (Carcinogenic Potency Database (CPDB), 2022)
